Reference: patent publication US12480920B2, “Method for the detection and quantification of fosfomycin, impurities and degradation products thereof” (MEITHEAL PHARMACEUTICALS, INC., priority 2019, dated 2025)

Assay: Stability study of fosfomycin for injection drug product: analysis of impurities by HILIC-HPLC with CAD detection
Type: physicochemical
Conditions: fosfomycin for injection drug product (vials, 7.92 g fosfomycin disodium + 150 mg succinic acid), 25° C. and 60% RH; for wt % of impurities at time points (months): 0: 0 months; for wt % of impurities at time points (months): 1: 1 month; for wt % of impurities at time points (months): 3: 3 months; for wt % of impurities at time points (months): 6: 6 months; for wt % of impurities at time points (months): 9: 9 months; for wt % of impurities at time points (months): 12: 12 months
Experimental: As part of a stability study of fosfomycin for injection drug product, analysis of impurities was performed according to the method of the present invention, using HILIC-HPLC method with CAD detection, as disclosed, for example, in example 2.
The sample subjected to the stability test was fosfomycin for injection drug product, namely, vials containing sterile dry powder admixture of 7.92 g of fosfomycin disodium and 150 mg of succinic acid.
The samples were kept at 25° C. and 60% RH. Analysis of impurities was performed at the following time points: 0, 1, 3, 6, 9 and 12 months. Impurities are reported at weight percentage 0.05% (limit of detection of the method). “Dtd.” in the table stands for “detected”, meaning that the impurity is detected but is under the limit of detection (0.05 wt %). ND stands for “not detected”.

Structure (SMILES)	wt % of impurities at time points (months): 0	wt % of impurities at time points (months): 1	wt % of impurities at time points (months): 3	wt % of impurities at time points (months): 6	wt % of impurities at time points (months): 9	wt % of impurities at time points (months): 12
CC(OP(=O)(O)C1OC1C)C(O)P(=O)(O)O (stereo not drawn) [Dimer1]	0.05 wt %	0.06 wt %	0.05 wt %	0.08 wt %	0.06 wt %	0.09 wt %
CCOC(C(C)O)P(=O)(O)O (stereo not drawn) [Ethanol adduct]			Dtd. (“Dtd.” in the table stands for “detected”, meaning that the impurity is detected but is under the limit of detection (0.05 wt %))		Dtd. (“Dtd.” in the table stands for “detected”, meaning that the impurity is detected but is under the limit of detection (0.05 wt %))	Dtd. (“Dtd.” in the table stands for “detected”, meaning that the impurity is detected but is under the limit of detection (0.05 wt %))
C=CCP(=O)(O)O [Olefinic acid, 2-propenyl phosphonic acid]	0.40 wt %	0.46 wt %	0.39 wt %	0.42 wt %	0.36 wt %	0.40 wt %
CC(OP(=O)(O)C1OC1C)C(O)P(=O)(O)O (stereo not drawn) [Dimer2]	0.05 wt %	Dtd. (“Dtd.” in the table stands for “detected”, meaning that the impurity is detected but is under the limit of detection (0.05 wt %))	0.07 wt %	0.10 wt %	0.08 wt %	0.11 wt %
CC(OP(=O)(O)C1OC1C)C(O)P(=O)(O)O (stereo not drawn) [Dimer3]						Dtd. (“Dtd.” in the table stands for “detected”, meaning that the impurity is detected but is under the limit of detection (0.05 wt %))
CC(O)C(O)P(=O)([O-])[O-].[Na+].[Na+] (stereo not drawn) [Impurity A, (1,2-dihydroxypropyl)phosphonate]	Dtd. (“Dtd.” in the table stands for “detected”, meaning that the impurity is detected but is under the limit of detection (0.05 wt %))	0.06 wt %	0.07 wt %	0.09 wt %	0.11 wt %	0.10 wt %
COC(C(C)O)P(=O)(O)O (stereo not drawn) [Methanol adduct]	0.07 wt %	0.18 wt %	0.13 wt %	0.35 wt %	Dtd. (“Dtd.” in the table stands for “detected”, meaning that the impurity is detected but is under the limit of detection (0.05 wt %))	0.12 wt %
CC(OP(=O)(OC(C)C(O)P(=O)(O)O)C1OC1C)C(O)P(=O)(O)O (stereo not drawn) [Trimer]	Dtd	0.07 wt %		Dtd. (“Dtd.” in the table stands for “detected”, meaning that the impurity is detected but is under the limit of detection (0.05 wt %))	Dtd. (“Dtd.” in the table stands for “detected”, meaning that the impurity is detected but is under the limit of detection (0.05 wt %))	Dtd. (“Dtd.” in the table stands for “detected”, meaning that the impurity is detected but is under the limit of detection (0.05 wt %))
